Reference: patent US9643964B2, “3-(2-aminopyrimidin-4-yl)-5-(3-hydroxypropynyl)-1H-pyrrolo[2,3-C]pyridine derivatives as NIK inhibitors for the treatment of cancer” (Janssen Pharmaceutica NV, priority 2013, dated 2017)

Experiments:
L-363 cells = assay: Biological Assay C: antiproliferative activity on L-363 cells (CellTiter-Glo); assay type: cell-based, human; details: 72 hr treatment, averaged values
Method: (§1) Determination of Antiproliferative Activity on LP-1, L-363 and JJN-3 Cells
(§2) All compounds tested were dissolved in DMSO and further dilutions were made in culture medium. Final DMSO concentration was 0.3% (v/v) in cell proliferation assays. Viability was assessed using CellTiter-Glo cell viability assay kit (Promega). The human LP-1, L-363 and JJN-3 cells (DSMZ) were cultured in RPMI 1640 medium supplemented with 2 mM L-glutamine, and 10% fetal calf serum (PAA). Cells were routinely kept as suspension cells at 37° C. in a humidified 5% CO2 atmosphere. Cells were passaged at a seeding density of 0.2×10^6/ml twice a week. Cells were seeded in black tissue culture treated 96-well plates (Perkin Elmer). Densities used for plating ranged from 2,000 to 6,000 cells per well in a total volume of 75 μl medium. After twenty four hours, drugs and/or solvents were added (25 μl) to a final volume of 100 μl. Following 72 hr of treatment plates were removed from the incubator and allowed to equilibrate to room temperature for approx 10 min. 100 μl CellTiter-Glo reagent was added to each well that was then covered (Perkin Elmer Topseal) and shaken on plate shaker for 10 min. Luminescence was measured on a HTS Topcount (Perkin Elmer). Within an experiment, the results for each treatment were the mean of 2 replicate wells. For initial screening purposes, compounds were tested using a 9 point dilution curve (serial 1:3 dilutions). For each experiment, controls (containing no drug) and a blank incubation (containing cells read at the time of compound addition) were run in parallel. The blank value was subtracted from all control and sample values. For each sample, the mean value for cell growth (in relative light units) was expressed as a percentage of the mean value for cell growth of the control.

JJN-3 cells = assay: Biological Assay C: antiproliferative activity on JJN-3 cells (CellTiter-Glo); assay type: cell-based, human; details: 72 hr treatment, averaged values
Method: as §1, §2

[1] = target: Recombinant Human NF-kappaB-Inducing Kinase (NIK/MAP3K14) (Homo sapiens, UniProt Q99558); assay: Biological Assay A2: inhibition of auto-phosphorylation of recombinant human NIK/MAP3K14 (AlphaScreen); assay type: biochemical; details: auto-phosphorylation; averaged over all measurements on all batches; read-out: αscreen IC50
Method: Inhibition of Auto-Phosphorylation of Recombinant Human NF-kappaB-Inducing Kinase (NIK/MAP3K14) Activity (AlphaScreen®)
NIK/MAP3K14 auto-phosphorylation activity was measured using the AlphaScreen® (αscreen) format (Perkin Elmer). All compounds tested were dissolved in dimethyl sulfoxide (DMSO) and further dilutions were made in assay buffer. Final DMSO concentration was 1% (v/v) in assays. Assay buffer was 50 mM Tris pH 7.5 containing 1 mM EGTA (ethylene glycol tetraacetic acid), 1 mM DTT (dithiothreitol), 0.1 mM Na3VO4, 5 mM MgCl2, 0.01% Tween 20. Assays were carried out in 384 well Alphaplates (Perkin Elmer). Incubations consisted of compound, 25 microM Adenosine-5′-triphosphate (ATP), and 0.2 nM NIK/MAP3K14. Incubations were initiated by addition of GST-tagged NIK/MAP3K14 enzyme, carried out for 1 h at 25° C. and terminated by addition of stop buffer containing anti-phospho-IKK Ser176/180 antibody. Protein A Acceptor and Glutathione-Donor beads were added before reading using an EnVision® Multilabel Plate Reader (Perkin Elmer). Signal obtained in the wells containing blank samples was subtracted from all other wells and IC50's were determined by fitting a sigmoidal curve to % inhibition of control versus Log10 compound concentration.

LP-1 cells = assay: Biological Assay C: antiproliferative activity on LP-1 cells (CellTiter-Glo); assay type: cell-based, human; details: 72 hr treatment, averaged values
Method: as §1, §2

Sequence of Recombinant Human NF-kappaB-Inducing Kinase (NIK/MAP3K14) (Q99558 whole entry): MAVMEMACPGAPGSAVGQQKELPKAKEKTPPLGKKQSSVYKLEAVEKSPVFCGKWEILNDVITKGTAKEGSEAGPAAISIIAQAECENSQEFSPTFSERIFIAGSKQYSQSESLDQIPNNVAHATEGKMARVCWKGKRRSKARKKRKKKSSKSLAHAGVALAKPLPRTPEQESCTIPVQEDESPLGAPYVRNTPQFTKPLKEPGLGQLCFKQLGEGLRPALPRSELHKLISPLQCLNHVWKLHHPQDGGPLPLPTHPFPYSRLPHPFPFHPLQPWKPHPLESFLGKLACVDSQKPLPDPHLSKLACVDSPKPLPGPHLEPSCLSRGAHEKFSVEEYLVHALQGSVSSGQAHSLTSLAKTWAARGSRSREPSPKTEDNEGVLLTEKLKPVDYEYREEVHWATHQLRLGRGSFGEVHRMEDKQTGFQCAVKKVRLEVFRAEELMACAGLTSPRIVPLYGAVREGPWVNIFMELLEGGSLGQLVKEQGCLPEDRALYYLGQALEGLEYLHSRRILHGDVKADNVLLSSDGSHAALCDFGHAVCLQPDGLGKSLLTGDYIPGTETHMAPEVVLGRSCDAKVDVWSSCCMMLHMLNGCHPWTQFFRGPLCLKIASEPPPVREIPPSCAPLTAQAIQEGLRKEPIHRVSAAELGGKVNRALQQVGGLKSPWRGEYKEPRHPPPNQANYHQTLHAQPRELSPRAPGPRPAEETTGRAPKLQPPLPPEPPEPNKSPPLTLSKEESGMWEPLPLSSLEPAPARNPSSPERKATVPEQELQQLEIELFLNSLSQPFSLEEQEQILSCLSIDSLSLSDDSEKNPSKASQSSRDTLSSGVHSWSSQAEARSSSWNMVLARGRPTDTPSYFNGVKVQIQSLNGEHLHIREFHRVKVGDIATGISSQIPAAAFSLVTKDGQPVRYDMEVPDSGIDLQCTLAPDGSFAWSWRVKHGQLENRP

SMILES	IC50 [1] [nM]	EC50 (L-363 cells; Homo sapiens, L-363, 72 h) [nM]	EC50 (JJN-3 cells; Homo sapiens, JJN-3, 72 h) [nM]	EC50 (LP-1 cells; Homo sapiens, LP-1, 72 h) [nM]	EC50 (L-363 cells) [nM]	EC50 (JJN-3 cells) [nM]	EC50 (LP-1 cells) [nM]
COCCOc1cnc(N)nc1-c1cn(C(C)C)c2cnc(C#CC(C)(O)C3CC3)cc12 (centres unmarked) [Compound 168]	36	23	27	93			
Nc1ncc(F)c(-c2cn(C3COC3)c3c(C4CC4)nc(C#CC4(O)CCCC4)cc23)n1 [Compound 94]	31	200	300	2700			
COCCCn1cc(-c2cc(C)nc(N)n2)c2cc(C#CC(C)(C)O)ncc21 [Compound 81]	100	5900	5700	28000			
COCCn1cc(-c2ccnc(N)n2)c2cc(C#CC(C)(O)C3CCNCC3)ncc21 (centres unmarked) [Compound 115]	4900	> 10000	> 10000	> 10000			
Cc1cnc(N)nc1-c1cn(CC2CCOCC2)c2cnc(C#CC(C)(C)O)cc12 [Compound 82]	35	890	1100	13000			
CCN1CCOC(Cn2cc(-c3nc(N)ncc3F)c3cc(C#CC(C)(O)C4CC4)ncc32)C1 (centres unmarked) [Compound 127]	180	190	240	420			
CNc1ncc(F)c(-c2cn(CCCOC)c3cnc(C#CC4(O)CCCC4)cc23)n1 [Compound 89]	130	4200	3700	7600			
COCCCn1cc(-c2nc(N)ncc2C)c2cc(C#CC(C)(C)O)ncc21 [Compound 83]	86	550	670	4700			
CC(O)(C#Cc1cc2c(-c3nc(N)ncc3F)cn(C3CN(C4CC4)C3)c2cn1)CF (centres unmarked) [Compound 161]	40	110	150	340			
COCCCn1cc(-c2nc(N)ncc2F)c2cc(C#CC(C)(O)c3cc(C)on3)ncc21 (centres unmarked) [Compound 91]	12	470	1100	4900			
CC(O)(C#Cc1cc2c(-c3nc(N)ncc3C(F)(F)F)cn(C3COC3)c2cn1)C1CC1 (centres unmarked) [Compound 100]	61	1500	1400	3000			
CC(O)(C#Cc1cc2c(-c3ccnc(N)n3)cn(C3CCN(C4CC4)CC3)c2cn1)C1CC1 (centres unmarked) [Compound 164]	89	270	390	680			
CCN1CCC(n2cc(-c3ccnc(N)n3)c3cc(C#CC(C)(C)O)ncc32)CC1 [Compound 79]	47	61	160	2000			
CC(C)(O)C#Cc1cc2c(-c3nc(N)ncc3F)cn(C3CN(C4CC4)C3)c2cn1 [Compound 166]	76	60	96	180			
COCCCn1cc(-c2nc(N)ncc2F)c2cc(C#CC(C)(C)O)nc(Cl)c21 [Compound 92]	47	32	54	86			
Nc1ncc(F)c(-c2cn(C3COC3)c3cnc(C#CC(O)(CF)C4CC4)cc23)n1 (centres unmarked) [Compound 137]	53	380	550	1990			
CC(O)(C#Cc1cc2c(-c3nc(N)ncc3F)cn(C3CCN(CCF)CC3)c2cn1)C1CC1 (centres unmarked) [Compound 163]	73	59	110	110			
COCCCn1cc(-c2nc(N)ncc2F)c2cc(C#CC(C)(O)C3CC3)nc(C(F)F)c21 (centres unmarked) [Compound 96]	170	6600	> 10000	> 10000			
[2H]C([2H])([2H])C(O)(C#Cc1cc2c(-c3nc(N)ncc3F)cn(C3COC3)c2cn1)C1([2H])C([2H])([2H])C1([2H])[2H] (centres unmarked) [Compound 110]	17	140	170	580			
COCCCn1cc(-c2nc(N)ncc2F)c2cc(C#CC3(O)CCC3)ncc21 [Compound 95]	7	95	150	470			
COCCCn1cc(-c2ccnc(N)n2)c2cc(C#CC(C)(C)O)nc(C)c21 [Compound 84]	68	22	67	250			
CCOCCN1CC(n2cc(-c3nc(N)ncc3F)c3cc(C#CC(C)(O)C4CC4)ncc32)C1 (centres unmarked) [Compound 158]	180	390	440	740			
CC(C)N1CCC(n2cc(-c3ccnc(N)n3)c3cc(C#CC(C)(C)O)ncc32)CC1 [Compound 78]	130	410	580	2000			
CNc1ncc(F)c(-c2cn(CCCOC)c3cnc(C#CC(C)(C)O)cc23)n1 [Compound 90]	44	510	720	740			
COCCN1CCC(n2cc(-c3nc(N)ncc3F)c3cc(C#CC(C)(O)C4CC4)ncc32)CC1 (centres unmarked) [Compound 108]	140	280	270	640			
CN1CC(n2cc(-c3nc(N)ncc3C(F)(F)F)c3cc(C#CC(C)(O)C4CC4)ncc32)C1 (centres unmarked) [Compound 99]	110	1100	1100	2000			

Continued, in another order:

IC50 [1] [nM]	SMILES	EC50 (L-363 cells; Homo sapiens, L-363, 72 h) [nM]	EC50 (JJN-3 cells; Homo sapiens, JJN-3, 72 h) [nM]	EC50 (LP-1 cells; Homo sapiens, LP-1, 72 h) [nM]	EC50 (L-363 cells) [nM]	EC50 (JJN-3 cells) [nM]	EC50 (LP-1 cells) [nM]
210	CC(O)(C#Cc1cc2c(-c3nc(N)ncc3F)cn(C3CN(C4CCCC4)C3)c2cn1)C1CC1 (centres unmarked) [Compound 142]	190	150	410			
120	CCN1CC(n2cc(-c3nc(N)ncc3F)c3cc(C#CC(C)(O)C4CC4)ncc32)C1 (centres unmarked) [Compound 136]	140	240	450			
15	COCCCn1cc(-c2nc(N)ncc2F)c2cc(C#CC(C)(O)C3CC3)ncc21 (centres unmarked) [Compound 88]	110	130	220			
680	CC(O)(C#Cc1cc2c(-c3nc(N)ncc3F)cn(C3COC3)c2cn1)C1CC1 (single isomer, unassigned) [Compound 121]				1300	1400	3400
6.5	CC(O)(C#Cc1cc2c(-c3nc(N)ncc3F)c[nH]c2cn1)C1CC1 (centres unmarked) [Compound 132]	30	77	410			
88	CN1CCC(n2cc(-c3nc(N)ncc3F)c3cc(C#CC(C)(O)C4CC4)ncc32)C1 (centres unmarked) [Compound 107]	57	78	150			
120	Cn1cc(Cn2cc(-c3nc(N)ncc3F)c3cc(C#CC(C)(O)C4CC4)ncc32)cn1 (centres unmarked) [Compound 109]	360	460	1200			
98	CCCN1CC(n2cc(-c3nc(N)ncc3F)c3cc(C#CC(C)(O)C4CC4)ncc32)C1 (centres unmarked) [Compound 139]	160	220	340			
95	CCN1CCC(n2cc(-c3nc(N)ncc3F)c3cc(C#CC(C)(O)C4CC4)ncc32)CC1 (centres unmarked) [Compound 106]	90	120	340			
110	CCN1CCCC(n2cc(-c3nc(N)ncc3F)c3cc(C#CC(C)(O)C4CC4)ncc32)C1 (centres unmarked) [Compound 138]	80	94	250			
23	CC1(Cn2cc(-c3nc(N)ncc3F)c3cc(C#CC(C)(O)C4CC4)ncc32)COC1 (centres unmarked) [Compound 129]	150	210	920			
53	CC(O)(C#Cc1cc2c(-c3nc(N)ncc3F)cn(C3CN(C4CC4)C3)c2cn1)C1CC1 (centres unmarked) [Compound 104]	180	260	470			
